Results from patent US11679103B2, “Multi-targeting agents for Alzheimer's disease therapy” (The Regents of the University of California, priority 2018, dated 2023).

Tests used:
[1] = system: Aβ amyloid plaques; test: [3H]PIB competition autoradiography in postmortem human AD frontal cortex slices; assay type: binding; settings: for effect on [3H]PIB binding: 1 μM; for GM/WM ratio of [3H]PIB binding: human AD frontal cortex; for displacement of [3H]PIB (words, discussion): FIG. 10 and 11; for effect on [3H]PIB binding level: GM and WM
Experimental: Post-mortem human AD frontal cortex sections (10 μm thick; human brain tissue obtained from Banner Sun Health Research Institute, Sun City, Ariz.) were preincubated in 10% alcohol PBS buffer for 10 minutes. The brain sections were placed in a glass chamber and incubated with [^3H]PIB (2 μCi/cc) in 10% alcohol PBS buffer, pH 7.4 at 37° C. for 1 h. The slices were then washed with cold 10% alcohol PBS buffer (2×3 mins), cold deionized water 1 min, respectively. The brain sections were air dried, exposed overnight on a phosphor film, and then placed on the Phosphor Autoradiographic Imaging System/Cyclone Storage Phosphor System (Packard Instruments Co). Regions of interest (ROIs) were drawn on the slices and the extent of binding of [^3H]PIB was measured with DLU/mm^2 using the OptiQuant acquisition and analysis program (Packard Instruments Co).
The Aβ plaque-α4β2* nAChR multi-agent was tested for binding to Aβ amyloid plaques in human postmortem AD brain frontal cortex slices labeled with [^3H]PIB (75-90 year olds, Braak score V-VI).

[2] = target: α4β2* nAChRs (Rattus norvegicus, UniProt P09483+P12390); settings: rat brain slices; for displacement of [3H]cytisine: 100 nM
Experimental: In Vitro Studies: Ex vivo rat brain slices were prepared at 10 μm thick using a Leica 1850 cryotome and used for [^3H]cytisine binding. […] The apposed phosphor screens were read and analyzed by OptiQuant acquisition and analysis program of the Cyclone Storage Phosphor System (Packard Instruments Co., Boston, Mass.). Region-of-interest of same size were drawn and analyzed on brain regions using OptiQuant software and binding of [^3H]cytisine measured in Digital Light Units/mm^2 (DLU/mm^2). Data was analyzed using following procedure: (a) the non-specific binding of [^3H]cytisine was subtracted for all samples; (b) the specific binding was normalized to 100% (no competitive ligand) and (c) the binding isotherms were fit to the Hill equation (KELL BioSoft software (v 6), Cambridge, U.K.).
Nicotinic receptor binding: The Aβ plaque-α4β2* nAChR multi-agents were tested for their affinity to the α4β2* nAChRs using rat brain slices labeled with [^3H]cytisine. […] Three brain regions analyzed included thalamus, frontal cortex and subiculum.

[3] = target: T1, Amyloid β (Homo sapiens, UniProt P05067); settings: cited from earlier work
T1 construct: host or cells: AD patients (clinical trials)

[4] = 1 μM test agent, control GM/WM approx. 2
[5] = 10 μM test agent, control GM/WM approx. 3

α4β2* nAChRs, sequence (P09483 31-630): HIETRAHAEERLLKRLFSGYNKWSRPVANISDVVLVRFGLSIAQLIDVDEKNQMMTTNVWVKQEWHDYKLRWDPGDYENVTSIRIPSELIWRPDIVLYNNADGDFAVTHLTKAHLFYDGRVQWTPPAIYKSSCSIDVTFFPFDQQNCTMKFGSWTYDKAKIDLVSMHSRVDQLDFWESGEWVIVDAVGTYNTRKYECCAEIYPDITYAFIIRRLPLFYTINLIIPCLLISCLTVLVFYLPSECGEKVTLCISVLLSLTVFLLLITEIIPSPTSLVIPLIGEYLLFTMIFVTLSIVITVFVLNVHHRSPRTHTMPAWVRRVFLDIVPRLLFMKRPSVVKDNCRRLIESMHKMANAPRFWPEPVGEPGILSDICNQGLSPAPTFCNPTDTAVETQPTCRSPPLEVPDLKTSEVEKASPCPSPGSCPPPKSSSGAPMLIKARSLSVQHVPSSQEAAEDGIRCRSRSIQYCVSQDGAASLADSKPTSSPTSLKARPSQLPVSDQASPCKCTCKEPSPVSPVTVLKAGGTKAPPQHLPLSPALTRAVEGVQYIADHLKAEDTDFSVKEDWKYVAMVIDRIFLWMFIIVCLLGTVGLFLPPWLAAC
α4β2* nAChRs, sequence (P12390 25-500): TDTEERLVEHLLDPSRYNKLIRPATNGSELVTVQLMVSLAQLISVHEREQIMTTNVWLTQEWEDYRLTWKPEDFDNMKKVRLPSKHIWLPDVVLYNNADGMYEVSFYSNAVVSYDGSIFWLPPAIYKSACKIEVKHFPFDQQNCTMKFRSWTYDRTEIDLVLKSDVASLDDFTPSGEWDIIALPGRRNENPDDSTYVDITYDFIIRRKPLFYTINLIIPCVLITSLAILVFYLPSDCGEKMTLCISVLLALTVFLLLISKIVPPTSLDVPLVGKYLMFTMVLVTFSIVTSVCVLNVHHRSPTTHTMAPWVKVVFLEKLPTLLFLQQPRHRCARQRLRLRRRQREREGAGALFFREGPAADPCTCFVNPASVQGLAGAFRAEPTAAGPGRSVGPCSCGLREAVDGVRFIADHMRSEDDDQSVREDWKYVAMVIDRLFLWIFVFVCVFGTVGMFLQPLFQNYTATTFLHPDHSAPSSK

Row | Compound | effect on [3H]PIB binding [1] | GM/WM ratio of [3H]PIB binding [1, 4] | GM/WM ratio of [3H]PIB binding [1, 5] | displacement of [3H]PIB (words, discussion) ([1]; human frontal cortex) | effect on [3H]PIB binding level ([1]; 10 μM) | other results
1 | 5-(3-methoxy-4-propyloxycinnamate)-3-(2-(S)-pyrrolidinylmethoxy)pyridine [GKS-007] | some inhibitory effect | no significant GM/WM ratio reduction |  |  |  | displacement of [3H]cytisine [2]: Displacement of significant amounts; affinity at α4β2* nAChR sites [2]: high affinity
2 | 5-(3′-Ethyl 3-methoxy-4-propyloxycinnamate)-3-(2-(S)-pyrrolidinylmethoxy)pyridine [GKS-006] |  |  |  |  |  | displacement of [3H]cytisine [2]: Displacement of significant amounts; affinity at α4β2* nAChR sites [2]: high affinity
3 | COc1cc(/C=C/C(=O)CC(=O)/C=C/c2ccc(O)c(OC)c2)ccc1O [Curcumin, curcumin] |  |  | 1.5 | significant displacement effect |  | reduction of [3H]PIB binding ([1]; 10 μM, human frontal cortex): 50%
4 | COc1cc(/C=C/C(=O)O)ccc1O [FA, ferulic acid] | did not significantly affect the binding | approx. 2 | 2 | little displacement | higher levels | 
5 | CNc1ccc(N=Nc2ccc(N(C)C)cc2)cc1 [TAZA, N,N,N′-trimethyl-4,4′-azodianiline] | significant displacement | 1.3 |  | greater than observed by curcumin |  | 
6 | Fexofenadine curcuminate [CUR-FEX] |  |  | 1.96 | largest displacement | lower binding | reduction of GM/WM ratio of [3H]PIB ([1]; human AD frontal cortex (FIG. 10, 10 μM)): 35%
7 | Fexofenadine-(3-methoxy-4-(1′-aminobutyryloxy)cinnamic acid [KD003] |  |  | 2.4 |  | higher levels | 
8 | Solanezumab: anti-amyloid monoclonal antibody |  |  |  |  |  | Aβ plaque load measured by PET imaging, before vs after antibody treatment ([3]; large clinical trials): did not change significantly; Outcome (clinical) ([3]; mild to moderate AD subjects): Did not improve
